Measured values published in article PMC8850458, “The AUTOTAC chemical biology platform for targeted protein degradation via the autophagy-lysosome system” (Nature Communications, 2022).
pIC50: −log10 of the molar value. Values joined by “and” are separate entries in the source; they are usually repeats but may differ in a detail not shown here. Equal values may be shown once.

Legend:
mutant desminL385P = biological target: T1, mutant desminL385P (Homo sapiens, UniProt P17661, L385P); test: WB degradation of mutant desmin in HeLa cells; assay type: cell-based; settings: exogenously expressed
T1 construct: expressed in transfected cells; host or cells: HeLa, transient
Protocol: (§1) Adherent cells were washed with phosphate-buffered saline (PBS) and cell pellets were lysed in SDS-based sample buffer (277.8 mM Tris-HCI, pH 6.8, 4.4% LDS, 44.4% (v/v) glycerol) containing beta-mercaptoethanol. Alternatively, cell pellets or protein supernatants were lysed in 5X Laemmli sample buffer. Whole-cell lysates were separated using SDS-PAGE, and transferred onto polyvinyllidene difluoride membranes at 100 V for 2 h at 4 °C. The membrane was incubated with a blocking solution consisting 4% skim milk in PBS solution for 30 min at room temperature and incubated with primary antibodies overnight, followed by incubation with host-specific HRP-conjugated secondary antibodies (1:10000 dilution). For signal detection, the membrane was developed with a mixture of ECL solution (Thermo Fisher Scientific) using X-ray films. Densitometry of developed bands was measured and analyzed with ImageJ (NIH, Bethesda).
(§2) Supplementary Fig. 5. AUTOTACs selectively target pathological aggregation-prone proteins for autophagic degradation. (a) WB in HEK293T cells treated with PBA-1105 (1 μM) and MG132 (1 μM, 24 h) at the indicated time points. (b) ICC of HeLa cells treated with the indicated compounds (1 μM, 24 h). Scale bar, 10 μm. (c) WB in HEK293T cells treated with PBA-1105 (500 nM, 24 h) and MG132 (1 μM, 24 h) under siRNA-mediated knockdown of p62 or ATG7 (20 nM, 48 h). (d) ICC in HeLa cells transiently expressing WIPI2-GFP and treated with Anle138b-F105 (1 μM, 24 h). Scale bar, 10 μm. (e) ICC in HeLa cells treated with […]
(§3) nM, 24 h). (g, h) WB in HeLa cells transiently expressing wild type or mutant (L385P) desmin-flag with LacZ-myc and treated with PBA-1105, PBA-1105b or Anle138b-F105 at the […]

wild-type desmin = biological target: T2, wild-type desmin (Homo sapiens, UniProt P17661); test: WB degradation of wild-type desmin in HeLa cells; assay type: cell-based; settings: exogenously expressed
T2 construct: expressed in transfected cells; host or cells: HeLa, transient
Protocol: as §1, §2, §3

[1] = biological target: T3, tau oligomers (htauP301L-BiFC bodies) and phosphorylated tau-BiFC (Homo sapiens, UniProt P10636, P618L); test: Immunohistochemistry of BiFC and AT8 fluorescence in brains of hTauP301L-BiFC mice; assay type: in vivo; settings: for Sudan black B AVG CA1: control 32.0843; for Sudan black B AVG Cortex: control 98.7415; for AT8 AVG CA1 / AT8 AVG % CA1 / AT8 AVG % Cortex / AT8 AVG Cortex / AT8 CA1, per animal / AT8 Cortex, per animal: Fig. 6l; for AT8 AVG CA1: control 95.3926; for AT8 AVG Cortex: control 109.457; for AT8 CA1, per animal: control AVG 95.3926; for AT8 Cortex, per animal: control AVG 109.457
T3 construct: from tissue; host or cells: brain of 9-month-old hTauP301L-BiFC transgenic mice (C57BL/6)

LNCaP cells = test: WST-based cell viability assay in LNCaP cells; settings: LNcaP, duplicates; for WST assay raw reading: listed as Vinclo.-2204
[2] = WST-based cell viability assay in LNCaP cells; settings: human, LNCaP cells
[3] = system: AR pathways (EGFR, p-Akt/Akt); test: WB of AR downstream signaling in DHT-activated cells; assay type: cell-based; settings: levels of EGFR and p-Akt/Akt
Source text: To assess the therapeutic efficacy of autophagy-targeting degraders, we compared the downstream signaling of AR and ERβ in cells treated with either AUTOTACs or their cognate TBLs. Dihydrotestosterone (DHT) and estradiol (E2) are natural agonists that respectively bind AR and ERβ and induce their dimerization and nuclear translocation, resulting in transcriptional activation of downstream proteins[27],[28]. […] Next, we examined the potency of AUTOTACs in cancer cell growth and progression.
Adherent cells were washed with phosphate-buffered saline (PBS) and cell pellets were lysed in SDS-based sample buffer (277.8 mM Tris-HCI, pH 6.8, 4.4% LDS, 44.4% (v/v) glycerol) containing beta-mercaptoethanol. Alternatively, cell pellets or protein supernatants were lysed in 5X Laemmli sample buffer. Whole-cell lysates were separated using SDS-PAGE, and transferred onto polyvinyllidene difluoride membranes at 100 V for 2 h at 4 °C.

[4] = WST assay viability relative to con = 100, LNcaP, duplicates
[5] = WST assay viability, AVG %, LNcaP

T3 sequence (P10636 1-441 isoform P10636-8 P301L): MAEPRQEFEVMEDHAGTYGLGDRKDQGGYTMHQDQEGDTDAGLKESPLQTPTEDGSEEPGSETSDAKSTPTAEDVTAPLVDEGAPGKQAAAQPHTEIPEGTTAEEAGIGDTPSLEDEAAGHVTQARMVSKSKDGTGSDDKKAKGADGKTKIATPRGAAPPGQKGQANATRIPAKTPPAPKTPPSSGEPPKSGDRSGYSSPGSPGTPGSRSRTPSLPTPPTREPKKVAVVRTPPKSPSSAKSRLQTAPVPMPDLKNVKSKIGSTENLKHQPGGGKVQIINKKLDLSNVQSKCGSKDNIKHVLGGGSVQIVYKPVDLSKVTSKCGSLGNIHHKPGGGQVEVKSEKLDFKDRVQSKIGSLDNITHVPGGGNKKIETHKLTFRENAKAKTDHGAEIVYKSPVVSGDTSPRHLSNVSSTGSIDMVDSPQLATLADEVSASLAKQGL
T2 sequence (P17661 whole entry): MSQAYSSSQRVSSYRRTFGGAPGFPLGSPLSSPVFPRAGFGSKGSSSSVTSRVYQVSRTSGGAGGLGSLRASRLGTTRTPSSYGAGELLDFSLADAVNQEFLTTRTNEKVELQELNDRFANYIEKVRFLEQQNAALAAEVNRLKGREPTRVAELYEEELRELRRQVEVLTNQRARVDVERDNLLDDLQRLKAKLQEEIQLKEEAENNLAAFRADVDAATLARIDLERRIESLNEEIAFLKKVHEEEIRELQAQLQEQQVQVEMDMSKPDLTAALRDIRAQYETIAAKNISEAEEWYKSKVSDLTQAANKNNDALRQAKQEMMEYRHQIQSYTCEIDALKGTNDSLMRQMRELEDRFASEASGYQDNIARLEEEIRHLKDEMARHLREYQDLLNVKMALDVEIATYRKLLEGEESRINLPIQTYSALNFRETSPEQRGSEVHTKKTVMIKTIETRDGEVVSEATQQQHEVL
T1 sequence (P17661 whole entry L385P): as the sequence (P17661 whole entry) above, with L385P counted along it

For `O=C(CCCc1ccccc1)NCCOCCOCCOCCNCc1ccc(OCc2ccccc2)c(OCc2ccccc2)c1` [PBA-1105], the “degradation of mutant desminL385P” value (mutant desminL385P) was “induced the degradation”, the “degradation of wild-type desmin” value (wild-type desmin) was “not wild-type desmin” and the “Sudan black B AVG CA1” value ([1]; Fig. 6k, 20 mg/kg) was 24. For the same compound, the “Sudan black B AVG Cortex” value ([1]; Fig. 6k, 20 mg/kg) was 61.9321, the “Sudan black B AVG CA1” value ([1]; Fig. 6k, 50 mg/kg) was 34.5914 and the “Sudan black B AVG Cortex” value ([1]; Fig. 6k, 50 mg/kg) was 38.2621. For the same compound, the “Sudan black B AVG % CA1” value ([1]; Fig. 6k, 50 mg/kg, control 100) was 107.814%, the “AT8 AVG CA1” value ([1]; 20 mg/kg) was 71.2628 and the “AT8 AVG % CA1” value ([1]; 20 mg/kg, control 100) was 74.7047%. The “AT8 AVG % Cortex” value ([1]; 20 mg/kg, control 100) was 77.6283%, the “AT8 AVG Cortex” value ([1]; 20 mg/kg) was 84.9698 and the “AT8 CA1, per animal” value ([1]; 20 mg/kg) was 75.563 and 74.477 and 82.816 and 64.806 and 58.652. The “AT8 Cortex, per animal” value ([1]; 20 mg/kg) was 72.808 and 80.823 and 112.523 and 115.092 and 43.603, the “AT8 AVG CA1” value ([1]; 50 mg/kg) was 65.5443 and the “AT8 AVG % CA1” value ([1]; 50 mg/kg, control 100) was 68.7101%. The “AT8 AVG % Cortex” value ([1]; 50 mg/kg, control 100) was 62.2901%, the “AT8 AVG Cortex” value ([1]; 50 mg/kg) was 68.181 and the “AT8 CA1, per animal” value ([1]; 50 mg/kg) was 51.948 and 69.287 and 60.135 and 88.15 and 58.518 and 65.228. The “AT8 Cortex, per animal” value ([1]; 50 mg/kg) was 68.316 and 68.839 and 67.094 and 66.047 and 57.905 and 80.885, the “soluble bodies of phosphorylated tau-BiFC (AT8 staining)” value ([1]; cortex and CA1 region) was “marked eradication” and the “total tau oligomers (BiFC) in cortex and CA1 region of hippocampus” value ([1]; hTauP301L-BiFC mice, dosage-dependent) was “drastic reduction”.

For `C=CC(C)(O)C(=O)N(C(=O)NCCOCCOCCNCC(O)COc1ccc(OCCc2ccccc2)c(OCCc2ccccc2)c1)c1cc(Cl)cc(Cl)c1` (centres unmarked) [VinclozolinM2-2204], the “WST assay raw reading” value (LNCaP cells; 0.01uM) was 1.976 and 1.95, the “WST assay viability relative to con = 100” value (LNCaP cells; 0.01uM, listed as Vinclo.-2204, 0.01 µM) was 92.2257 and the “WST assay raw reading” value (LNCaP cells; 0.1uM) was 1.955 and 1.92. For the same compound, the “WST assay viability relative to con = 100” value (LNCaP cells; 0.1uM, listed as Vinclo.-2204, 0.1 µM) was 90.7275, the “WST assay raw reading” value (LNCaP cells; 1uM) was 1.902 and 1.905 and the “WST assay viability relative to con = 100” value (LNCaP cells; 1uM, listed as Vinclo.-2204, 1 µM) was 89.9784. For the same compound, the “WST assay raw reading” value (LNCaP cells; 10uM) was 0.595 and 0.848, the “WST assay viability relative to con = 100” value (LNCaP cells; 10uM, listed as Vinclo.-2204, 10 µM) was 37.1899 and the “WST assay raw reading” value (LNCaP cells; 50uM) was 0.14 and 0.144. For the same compound, the “WST assay viability relative to con = 100” value (LNCaP cells; 50uM, listed as Vinclo.-2204, 50 µM) was 2.031, the “WST assay raw reading” value (LNCaP cells; 100uM) was 0.164 and 0.166 and the “WST assay viability relative to con = 100” value (LNCaP cells; 100uM, listed as Vinclo.-2204, 100 µM) was 3.13. The pIC50 [2] was 5.33, the viability at 0.01 µM [2, 4] was 93.5% and the viability at 0.1 µM [2, 4] was 92.5%. For the same compound, the viability at 1 µM [2, 4] was 89.8%, the viability at 10 µM [2, 4] was 24.6% and the viability at 50 µM [2, 4] was 1.83%. The viability at 100 µM [2, 4] was 3.03%, the viability at 0.01 µM [2, 5] was 92.9% and the viability at 0.1 µM [2, 5] was 91.6%. It also gave a viability at 1 µM [2, 5] of 89.9%, a viability at 10 µM [2, 5] of 30.9% and a viability at 50 µM [2, 5] of 1.93%. For the same compound, the viability at 100 µM [2, 5] was 3.08% and the “inhibition of AR pathways relative to its TBL” value [3] was “approximately 4 folds”.
